Common to all, as to type: in vivo
Data set [1] concerns wheat (Triticum aestivum). The data set is described as follows: Test Example 1 upland field foliage treatment, crop phytotoxicity. The settings on record: Table 4, upland field foliage treatment, index 0-5. Put shortly:
(§1)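 Seeds sown in upland soil in pots and covered with about 1 cm soil; on day 14 after sowing, diluted wettable powder applied uniformly to leaves at 1 kg active ingredient per hectare. Weed control or crop phytotoxicity scored visually 21 days after application on a 0–5 scale (5 = ≥90%, 0 = <10%).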

Data set [2] relates to soybean (Glycine max). The data set is described as above. The settings on record: Table 4, upland field foliage treatment, index 0-5. Put shortly: as §1
In data set [3] the test system is Setaria viridis. The data set is described as follows: Test Example 1 upland field foliage treatment. The settings on record: Table 4, upland field foliage treatment, index 0-5. Put shortly:
as §1

The subject of data set [4] is Stellaria media. Put plainly: Test Example 1 upland field foliage treatment. The settings on record: Table 4, upland field foliage treatment, index 0-5. The procedure, abridged:
as §1

Data set [5] deals with Digitaria adscendens. Put plainly: Test Example 1 upland field foliage treatment. The settings on record: Table 4, upland field foliage treatment, index 0-5. The procedure, abridged: as §1
The subject of data set [6] is Chenopodium album. The data set is described as follows: Test Example 1 upland field foliage treatment. The settings on record: Table 4, upland field foliage treatment, index 0-5. Put shortly: as §1
Data set [7] has as its system Setaria viridis. The data set is described as follows: Test Example 2 upland soil treatment. The settings on record: Table 5, upland soil treatment, index 0-5. As for the experimental part: (§2) A plastic pot of 130 cm^2 was filled with upland soil. Subsequently, weed seeds of Setaria viridis, Digitaria adscendens, Chenopodium album and Stellaria media, and crop seeds of soybean (Glycine max) and wheat (Triticum aestivum), were sowed and covered with soil of about 1 cm thickness. On the next day after the sowing, the wettable powder prepared in Formulation Example 1 was diluted with water such that the amount of the active ingredient became 1 kg per hectare, and then uniformly applied to the soil surface. On the 21st day after the application, observation and evaluation were carried out according to the aforesaid criteria.
(§3) Herbicidal activity was evaluated based on the following criteria.
(§4) • 5: herbicidal effect of not less than 90%, or phytotoxicity of 90% or more • 4: herbicidal effect of not less than 70% and less than 90%, or phytotoxicity of 70% or more and less than 90% • 3: herbicidal effect of not less than 50% and less than 70%, or phytotoxicity of 50% or more and less than 70% • 2: herbicidal effect of not less than 30% and less than 50%, or phytotoxicity of 30% or more and less than 50% • 1: herbicidal effect of not less than 10% and less than 30%, or phytotoxicity of 10% or more and less than 30% • 0: herbicidal effect of not less than 0% and less than 10%, or phytotoxicity of 0% or more and less than 10%

The test system of data set [8] is Stellaria media. Put plainly: Test Example 2 upland soil treatment. The settings on record: Table 5, upland soil treatment, index 0-5. As for the experimental part:
as §2, §3, §4

In data set [9] the test system is Digitaria adscendens. The data set is described as follows: Test Example 2 upland soil treatment. The settings on record: Table 5, upland soil treatment, index 0-5. As for the experimental part: as §2, §3, §4
Data set [10] has as its system Chenopodium album. Put plainly: Test Example 2 upland soil treatment. The settings on record: Table 5, upland soil treatment, index 0-5. As for the experimental part: as §2, §3, §4
The test system of data set [11] is wheat (Triticum aestivum). Put plainly: Test Example 2 upland soil treatment, crop phytotoxicity. The settings on record: Table 5, upland soil treatment, index 0-5. Here is the method: as §2, §3, §4
Data set [12] deals with soybean (Glycine max). Described as above. The settings on record: Table 5, upland soil treatment, index 0-5. Here is the method: as §2, §3, §4

For the compound `CNC(=O)C(Cn1cc(C)c(-c2ccc(F)cc2Cl)n1)=NOC` [Compound 82], the “Herbicidal activity (phytotoxicity) TA: Wheat (Triticum aestivum)” value (from here on “Herbicidal activity (phytotoxicity) TA”) was 0 (herbicidal effect of not less than 0% and less than 10%, or phytotoxicity of 0% or more and less than 10%) in [1]; 0 (herbicidal effect of not less than 0% and less than 10%, or phytotoxicity of 0% or more and less than 10%) in data set [11]. The “Herbicidal activity (phytotoxicity) GM: Soybean (Glycine max)” value (“Herbicidal activity (phytotoxicity) GM” for short) in the data set with soybean (Glycine max) [2] is 0 (herbicidal effect of not less than 0% and less than 10%, or phytotoxicity of 0% or more and less than 10%); in the data set on soybean (Glycine max) [12], 0 (herbicidal effect of not less than 0% and less than 10%, or phytotoxicity of 0% or more and less than 10%). Moreover, the “Herbicidal activity SV: Setaria viridis” value in the data set on Setaria viridis [3] was 3 (herbicidal effect of not less than 50% and less than 70%, or phytotoxicity of 50% or more and less than 70%); in the data set with Setaria viridis [7], 4 (herbicidal effect of not less than 70% and less than 90%, or phytotoxicity of 70% or more and less than 90%). Also, the “Herbicidal activity SM: Stellaria media” value in the data set with Stellaria media [4] is 4 (herbicidal effect of not less than 70% and less than 90%, or phytotoxicity of 70% or more and less than 90%); in the data set on Stellaria media [8], 5 (herbicidal effect of not less than 90%, or phytotoxicity of 90% or more). In addition, the “Herbicidal activity DA: Digitaria adscendens” value (“Herbicidal activity DA” for short) in the data set with Digitaria adscendens [5] was 5 (herbicidal effect of not less than 90%, or phytotoxicity of 90% or more); with Digitaria adscendens [9], 5 (herbicidal effect of not less than 90%, or phytotoxicity of 90% or more). In addition, the “Herbicidal activity CA: Chenopodium album” value (“Herbicidal activity CA” below) in the data set with Chenopodium album [6] was 4 (herbicidal effect of not less than 70% and less than 90%, or phytotoxicity of 70% or more and less than 90%); in the data set with Chenopodium album [10] it was 4 (herbicidal effect of not less than 70% and less than 90%, or phytotoxicity of 70% or more and less than 90%).

For the compound `CNC(=O)C(Cn1cc(C)c(-c2ccc(F)c(Br)c2)n1)=NOC` [Compound 83], the “Herbicidal activity (phytotoxicity) TA” value in data set [1] was 0 (herbicidal effect of not less than 0% and less than 10%, or phytotoxicity of 0% or more and less than 10%); in data set [11], 0 (herbicidal effect of not less than 0% and less than 10%, or phytotoxicity of 0% or more and less than 10%). The “Herbicidal activity (phytotoxicity) GM” value in the data set on soybean (Glycine max) [2] is 0 (herbicidal effect of not less than 0% and less than 10%, or phytotoxicity of 0% or more and less than 10%); in the data set on soybean (Glycine max) [12] it was 0 (herbicidal effect of not less than 0% and less than 10%, or phytotoxicity of 0% or more and less than 10%). For the same compound, the “Herbicidal activity SV: Setaria viridis” value in the data set on Setaria viridis [3] is 3 (herbicidal effect of not less than 50% and less than 70%, or phytotoxicity of 50% or more and less than 70%); with Setaria viridis [7], 5 (herbicidal effect of not less than 90%, or phytotoxicity of 90% or more). Besides, the “Herbicidal activity SM: Stellaria media” value is 4 (herbicidal effect of not less than 70% and less than 90%, or phytotoxicity of 70% or more and less than 90%) in the data set with Stellaria media [4]; 5 (herbicidal effect of not less than 90%, or phytotoxicity of 90% or more) in the data set on Stellaria media [8]. Besides, the “Herbicidal activity DA” value was 5 (herbicidal effect of not less than 90%, or phytotoxicity of 90% or more) with Digitaria adscendens [5] and 5 (herbicidal effect of not less than 90%, or phytotoxicity of 90% or more) in the data set on Digitaria adscendens [9]. In addition, the “Herbicidal activity CA” value in the data set on Chenopodium album [6] was 4 (herbicidal effect of not less than 70% and less than 90%, or phytotoxicity of 70% or more and less than 90%); in the data set with Chenopodium album [10], 5 (herbicidal effect of not less than 90%, or phytotoxicity of 90% or more).

As to `CNC(=O)C(Cn1cc(C)c(-c2cc(F)cc(C(F)(F)F)c2)n1)=NOC` [Compound 88], the “Herbicidal activity (phytotoxicity) TA” value was 0 (herbicidal effect of not less than 0% and less than 10%, or phytotoxicity of 0% or more and less than 10%) in data set [1]; 0 (herbicidal effect of not less than 0% and less than 10%, or phytotoxicity of 0% or more and less than 10%) in data set [11]. Also, the “Herbicidal activity (phytotoxicity) GM” value with soybean (Glycine max) [2] is 0 (herbicidal effect of not less than 0% and less than 10%, or phytotoxicity of 0% or more and less than 10%); in the data set on soybean (Glycine max) [12], 0 (herbicidal effect of not less than 0% and less than 10%, or phytotoxicity of 0% or more and less than 10%). The “Herbicidal activity SV: Setaria viridis” value is 4 (herbicidal effect of not less than 70% and less than 90%, or phytotoxicity of 70% or more and less than 90%) in the data set with Setaria viridis [3]; 4 (herbicidal effect of not less than 70% and less than 90%, or phytotoxicity of 70% or more and less than 90%) in the data set on Setaria viridis [7]. Further, the “Herbicidal activity SM: Stellaria media” value is 5 (herbicidal effect of not less than 90%, or phytotoxicity of 90% or more) in the data set on Stellaria media [4] and 5 (herbicidal effect of not less than 90%, or phytotoxicity of 90% or more) with Stellaria media [8]. The “Herbicidal activity DA” value in the data set on Digitaria adscendens [5] was 5 (herbicidal effect of not less than 90%, or phytotoxicity of 90% or more); with Digitaria adscendens [9], 4 (herbicidal effect of not less than 70% and less than 90%, or phytotoxicity of 70% or more and less than 90%). Moreover, the “Herbicidal activity CA” value was 5 (herbicidal effect of not less than 90%, or phytotoxicity of 90% or more) with Chenopodium album [6] and 5 (herbicidal effect of not less than 90%, or phytotoxicity of 90% or more) with Chenopodium album [10].

For `CCN(CC)C(=O)C(Cn1cc(C)c(-c2ccccc2)n1)=NOC` [Compound 94], the “Herbicidal activity (phytotoxicity) TA” value in data set [1] was 0 (herbicidal effect of not less than 0% and less than 10%, or phytotoxicity of 0% or more and less than 10%); in [11], 0 (herbicidal effect of not less than 0% and less than 10%, or phytotoxicity of 0% or more and less than 10%). Besides, the “Herbicidal activity (phytotoxicity) GM” value with soybean (Glycine max) [2] was 0 (herbicidal effect of not less than 0% and less than 10%, or phytotoxicity of 0% or more and less than 10%); with soybean (Glycine max) [12], 0 (herbicidal effect of not less than 0% and less than 10%, or phytotoxicity of 0% or more and less than 10%). The “Herbicidal activity SV: Setaria viridis” value is 3 (herbicidal effect of not less than 50% and less than 70%, or phytotoxicity of 50% or more and less than 70%) in the data set on Setaria viridis [3]; 3 (herbicidal effect of not less than 50% and less than 70%, or phytotoxicity of 50% or more and less than 70%) with Setaria viridis [7]. Further, the “Herbicidal activity SM: Stellaria media” value is 5 (herbicidal effect of not less than 90%, or phytotoxicity of 90% or more) in the data set with Stellaria media [4]; 4 (herbicidal effect of not less than 70% and less than 90%, or phytotoxicity of 70% or more and less than 90%) in the data set on Stellaria media [8]. The “Herbicidal activity DA” value in the data set with Digitaria adscendens [5] was 3 (herbicidal effect of not less than 50% and less than 70%, or phytotoxicity of 50% or more and less than 70%); in the data set with Digitaria adscendens [9], 3 (herbicidal effect of not less than 50% and less than 70%, or phytotoxicity of 50% or more and less than 70%). Moreover, the “Herbicidal activity CA” value is listed as 5 (herbicidal effect of not less than 90%, or phytotoxicity of 90% or more) with Chenopodium album [6] and 5 (herbicidal effect of not less than 90%, or phytotoxicity of 90% or more) with Chenopodium album [10].

The record behind these values is US7192906B2, “Substituted pyrazole derivatives, production process thereof, and herbicide compositions containing the derivatives” (SDS Biotech K.K., priority 2001, dated 2007).
